Here are results for two compounds from patent publication EP2669288A1, “New monosaccharide derivatives and biological applications thereof” (L[…], priority 2012, dated 2013).

Where a name gives a salt, the structure may show the parent alone.

Assay [1] addresses GmhA of E. coli (Escherichia coli, UniProt P63224). The experiment in a line: Inhibition of the enzymatic activity of GmhA (luminescent assay). It counts as biochemical. Conditions: 2nM GmhA, 3µM sedoheptulose-7-phosphate, 3µM ATP, 50nM HldE; 30min pre-incubation. On the procedure: Inhibition of the enzymatic activity of GmhA (luminescent assay):
The assay buffer "AB" contained 50 mM Hepes pH7.5, 1 mM MnCl2, 25 mM KCl, 0.012% Triton-X100 and 1mm dithiothreitol (DTT) and 0.1µM Myelin basic protein (MBP). The following components were added in a white polystyrene Costar plate up to a final volume of 30µL: 10µL inhibitor dissolved in DMSO/water 50/50, and 20µL GmhA of E. coli in AB. After 30min of pre-incubation at room temperature, 30µL of Substrates mix in AB were added in each well to a final volume of 60µL. This reaction mixture was then composed of 2nM GmhA, 3µM sedoheptulose-7-phosphate (Sigma), 3µM ATP (Sigma) and 50nM HldE of E. coli in assay buffer. After 30min of incubation at room temperature, 100µL of the revelation mix were added to a final volume of 160µL, including the following constituents at the respective final concentrations: 10000 light units/ml luciferase (Sigma), 20µM D-luciferin (Sigma), 100µM N-acetylcysteamine (Aldrich). Luminescence intensity was immediately measured on Luminoskan (Thermofischer) and converted into inhibition percentages. For IC50 determinations, the inhibitor was tested at 6 to 10 different concentrations, and the related inhibitions were fitted to a classical langmuir equilibrium model using XLFIT (IDBS).

In assay [2] the target is HldE of E. coli (Escherichia coli, UniProt P76658). The experiment in a line: Inhibition of the enzymatic activity of HldE-K (luminescent assay on kinase activity). The note with it: 3nM HldE, 0.2µM β-heptose-7-phosphate, 0.2µM ATP; 30min pre-incubation. It counts as biochemical. On the procedure: Inhibition of the enzymatic activity of HldE-K (luminescent assay on kinase activity):
The assay buffer "AB" contained 50 mM Hepes pH7.5, 1 mM MnCl2, 25 mM KCl, 0.012% Triton-X100 and 1mm dithiothreitol (DTT) and 0.1µM Myelin basic protein (MBP). The following components were added in a white polystyrene Costar plate up to a final volume of 30µL: 10µL inhibitor dissolved in DMSO/water 50/50, and 20µL HldE of E. coli in AB. After 30min of pre-incubation at room temperature, 30µL of Substrates mix in AB were added in each well to a final volume of 60µL. This reaction mixture was then composed of 3nM HldE, 0.2µM β-heptose-7-phosphate (custom synthesis) and 0.2µM ATP (Sigma) in assay buffer. After 30min of incubation at room temperature, 200µL of the revelation mix were added to a final volume of 260µL, including the following constituents at the respective final concentrations: 5000 light units/ml luciferase (Sigma), 30µM D-luciferin (Sigma), 100µM N-acetylcysteamine (Aldrich). Luminescence intensity was immediately measured on Luminoskan (Thermofischer) and converted into inhibition percentages. For IC50 determinations, the inhibitor was tested at 6 to 10 different concentrations, and the related inhibitions were fitted to a classical Langmuir equilibrium model using XLFIT (IDBS).

The subject of assay [3] is E. coli C7 LPS heptosylation. The experiment in a line: Inhibition of E. coli C7 LPS biosynthesis (LPS gel electrophoresis, silver staining). Format: cell-based, E. coli C7 (018:K1:H7). On the procedure: Inhibition of E. coli C7 (018:K1:H7) LPS biosynthesis:
The inner core contains several heptose residues. An inhibitor of the LPS heptosylation pathway should therefore reduce dramatically the size of LPS from full-length to the so-called 'Re-LPS' limited to lipid A branched with 2 Kdo residues.
Bacterial culture: The effect of heptosylation inhibitors on E. coli LPS was assessed as described below. The compounds to be tested were prepared in deionised water/DMSO (50/50) solutions and added (25µL) in sterile culture microtubes. The strain used in this study was E. coli C7 (018:K1:H7). The bacteria were isolated on tryptic soy agar (TSA) over-night. […]
LPS extraction: Bacterial cultures were normalized via OD determination, pelleted and washed with 1ml Phosphate-Buffer-Saline (PBS). […] The resulting supernatant, containing LPS was finally analysed by SDS-PAGE electrophoresis. […]
Silver staining: Gels were incubated overnight in 5% acetic acid/40% ethanol/deionised water, treated by 1% periodic acid/5% acetic acid for 15min, washed 4 times for 10min in deionised water and finally incubated for 18min in the dark in a silver nitrate solution composed of 56ml NaOH 0.1N, 4ml ammoniac 33%, 45ml AgN03 5% (Tsai and Frasch) and 195 ml deionised water. […] Gels were finally washed in deionised water, numerized with a Samsung PL51 camera and analysed by ImageJ software. […]

Assay [4] relates to E. coli C7 (018:K1:H7). The experiment in a line: Killing of the bacteria in culture with compound. Conditions: at 1 mM. Format: cell-based. As for the experimental part:
Bacterial culture: The effect of heptosylation inhibitors on E. coli LPS was assessed as described below. The compounds to be tested were prepared in deionised water/DMSO (50/50) solutions and added (25µL) in sterile culture microtubes. The strain used in this study was E. coli C7 (018:K1:H7). The bacteria were isolated on tryptic soy agar (TSA) over-night. Isolated colonies were cultured in 10ml of Luria-Bertani medium (LB) at 37°C up to an optical density of typically 0.15. These exponentially growing bacteria were finally diluted to 5e5 cfu/ml and added in each well (225µL) for incubation with the compounds at 37°C for approximately 5 hours, up to an optical density of ≈0.2-0.4. Some test compounds e.g. phospho-sugars required Glucose-6-Phosphate (G6P, from Sigma) to be added in the culture medium in order to activate their active transport into the bacterial cytosol via the phospho-sugar transporter UhpT. This was achieved by adding in the culture tube 2.5µL of a 10mM water solution of G6P (100µM final concentration).

Chain of HldE of E. coli (P76658 whole entry): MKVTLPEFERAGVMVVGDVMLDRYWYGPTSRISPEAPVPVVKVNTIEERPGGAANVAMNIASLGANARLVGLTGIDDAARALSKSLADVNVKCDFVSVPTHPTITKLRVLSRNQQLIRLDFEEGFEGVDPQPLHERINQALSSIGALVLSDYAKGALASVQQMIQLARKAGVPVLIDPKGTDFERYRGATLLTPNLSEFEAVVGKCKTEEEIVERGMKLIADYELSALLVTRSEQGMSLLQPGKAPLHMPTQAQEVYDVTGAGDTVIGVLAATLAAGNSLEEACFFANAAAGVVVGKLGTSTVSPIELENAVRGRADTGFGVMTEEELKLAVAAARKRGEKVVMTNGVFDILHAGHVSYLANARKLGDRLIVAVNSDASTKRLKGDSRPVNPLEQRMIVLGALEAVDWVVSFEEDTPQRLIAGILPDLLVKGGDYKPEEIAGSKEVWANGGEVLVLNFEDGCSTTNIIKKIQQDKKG
Chain of GmhA of E. coli (P63224 whole entry): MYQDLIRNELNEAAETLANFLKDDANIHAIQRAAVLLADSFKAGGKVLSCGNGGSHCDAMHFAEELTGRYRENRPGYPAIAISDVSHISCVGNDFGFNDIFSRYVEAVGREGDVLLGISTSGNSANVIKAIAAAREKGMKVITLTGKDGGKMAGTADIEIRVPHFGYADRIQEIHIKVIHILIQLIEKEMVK

Regarding `N[C@H]1C(O)O[C@H]([C@H](O)COP(=O)(O)O)[C@@H](O)[C@@H]1O` (stereo partly drawn) [Example 2, 7-O-phosphate-D-glycero-D-gluco-2-deoxy-2-amino-heptopyranoside hydrochloride], the 50% inhibitory concentration (IC50) in assay [1] and in assay [2] was < 100 µM in each case. Besides, in assay [3] (in absence of G6P), the “reducing LPS heptosylation” value is “inactive”. Also, the “inhibition of E. coli C7 LPS heptosylation” value in assay [3] (in the presence of 100 µM G6P, at concentrations < 1 mM) is “at least 50%”. Further, the “killing of the bacteria” value in assay [4] is “did not kill the bacteria”.
“7-O-phosphate-D-glycero-D-gluco-2-deoxy-2-amino-1-deoxy-heptopyranoside hydrochloride [Example 1]”: the half-maximal inhibitory concentration (IC50) in assay [1] and in assay [2] was < 100 µM in each case.
